“And” between values parts separate entries of the source, which are not always exact repeats. Equal entries are not always repeated. Where a SMILES comes first, the peptide text is derived from it. The star is where a group is joined. Cbz = O=C(OCc1ccccc1)*
Columns and labels:
DMS-153 = test: cells; type: functional, cell-based, Homo sapiens
Description: SANGER: Inhibition of human DMS-153 cell growth in a cell viability assay.

EHEB = test: cells; type: functional, cell-based; conditions: Homo sapiens;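 further: growth inhibition of human EHEB cells, read out with a cell viability assay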
Description: SANGER: Inhibition of human EHEB cell growth in a cell viability assay.

IM-9 = test: SANGER: Inhibition of human IM-9 cell growth in a cell viability assay.; type: functional, cell-based
IMR-5 = test: cells; type: functional, cell-based, Homo sapiens;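 further: growth inhibition of human IMR-5 cells, read out with a cell viability assay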
Description: SANGER: Inhibition of human IMR-5 cell growth in a cell viability assay.

LB373-MEL-D = test: cells; type: functional, cell-based, Homo sapiens;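 further: growth inhibition of the cell line, read out in a cell viability assay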
Description: SANGER: Inhibition of human LB373-MEL-D cell growth in a cell viability assay.

LU-165 = test: cells; type: functional, cell-based, Homo sapiens
Description: SANGER: Inhibition of human LU-165 cell growth in a cell viability assay.

MC-CAR = test: cells; type: functional, cell-based, Homo sapiens;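 further: growth inhibition of the human MC-CAR cell line, read out by a cell viability assay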
Description: SANGER: Inhibition of human MC-CAR cell growth in a cell viability assay.

MFH-ino = test: cells; type: functional, cell-based, Homo sapiens;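 further: growth inhibition of human MFH-ino cells, read out by a cell viability assay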
Description: SANGER: Inhibition of human MFH-ino cell growth in a cell viability assay.

NCI-H2171 = test: cells; type: functional, cell-based, Homo sapiens;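 further: growth inhibition of human NCI-H2171 cells, read out by a cell viability assay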
Description: SANGER: Inhibition of human NCI-H2171 cell growth in a cell viability assay.

NCI-H524 = test: cells; type: functional, cell-based, Homo sapiens;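 further: growth inhibition of human NCI-H524 cells, read out through a cell viability assay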
Description: SANGER: Inhibition of human NCI-H524 cell growth in a cell viability assay.

RPMI-6666 = test: cells; type: functional, cell-based, Homo sapiens
Description: SANGER: Inhibition of human RPMI-6666 cell growth in a cell viability assay.

SCLC-21H = test: cells; type: functional, cell-based, Homo sapiens;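 further: growth inhibition of cultured human SCLC-21H cells, read out with a cell viability assay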
Description: SANGER: Inhibition of human SCLC-21H cell growth in a cell viability assay.

CAL-148 = test: cells; type: functional, cell-based, Homo sapiens
Description: SANGER: Inhibition of human CAL-148 cell growth in a cell viability assay.

THP-1 = test: cells; type: functional, cell-based, Homo sapiens;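 further: growth inhibition of THP-1 cells, read out via a cell viability assay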
Description: SANGER: Inhibition of human THP-1 cell growth in a cell viability assay.

TUR = test: cells; type: functional, cell-based, Homo sapiens;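 further: growth inhibition of human TUR cells, read out with a cell viability assay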
Description: SANGER: Inhibition of human TUR cell growth in a cell viability assay.

WSU-NHL = test: cells; type: functional, cell-based, Homo sapiens;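 further: growth inhibition of human WSU-NHL cells, read out with a cell viability assay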
Description: SANGER: Inhibition of human WSU-NHL cell growth in a cell viability assay.

D-542MG = test: cells; type: functional, cell-based; conditions: Homo sapiens
Description: SANGER: Inhibition of human D-542MG cell growth in a cell viability assay.

NB12 = test: cells; type: functional, cell-based; conditions: Homo sapiens;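 further: growth inhibition of human NB12 cells, read out by a cell viability assay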
Description: SANGER: Inhibition of human NB12 cell growth in a cell viability assay.

[1] = Homo sapiens, IMR-5, read-out: IC50

SMILES	IC50 (DMS-153; Homo sapiens, DMS-153)	IC50 (EHEB)	IC50 (IM-9; Homo sapiens, IM-9)	IC50 (IMR-5; [1])	IC50 (LB373-MEL-D; Homo sapiens, LB373-MEL-D)	IC50 (LU-165; Homo sapiens, LU-165)	IC50 (MC-CAR; Homo sapiens, MC-CAR)	IC50 (MFH-ino; Homo sapiens, MFH-ino)	IC50 (NCI-H2171; Homo sapiens, NCI-H2171)	IC50 (NCI-H524; Homo sapiens, NCI-H524)	IC50 (RPMI-6666; Homo sapiens, RPMI-6666)	IC50 (SCLC-21H; Homo sapiens, SCLC-21H)	IC50 (CAL-148; Homo sapiens, CAL-148)	IC50 (THP-1; Homo sapiens, THP-1)	IC50 (TUR; Homo sapiens, TUR)	IC50 (WSU-NHL; Homo sapiens, WSU-NHL)	IC50 (D-542MG)	IC50 (NB12)	also measured
NC(=O)c1cccc(-c2cc(Nc3ccc(OC(F)(F)F)cc3)ncn2)c1	> 1280 nM	> 1280 nM	> 1280 nM	> 1280 nM	> 1280 nM	> 1280 nM	> 1280 nM	> 1280 nM	> 1280 nM	> 1280 nM	> 1280 nM	> 1280 nM	> 1280 nM	> 1280 nM	> 1280 nM	> 1280 nM			
Cc1ccc(NC(=O)c2ccc(CN3CCN(C)CC3)cc2)cc1Nc1nccc(-c2cccnc2)n1 [IMATINIB]	> 2000 nM	> 2000 nM	> 2000 nM		> 2000 nM	> 2000 nM	> 2000 nM	> 2000 nM	> 2000 nM	> 2000 nM	> 2000 nM	> 2000 nM	> 2000 nM	> 2000 nM	> 2000 nM	> 2000 nM			IC50 (IMR-5; Homo sapiens, IMR-5): > 2000 nM
Nc1ccccc1NC(=O)c1ccc(CNC(=O)OCc2cccnc2)cc1 [ENTINOSTAT]	975 nM	926 nM	> 5000 nM	> 5000 nM	2270 nM	618 nM	> 5000 nM	3470 nM	1350 nM	554 nM	411 nM	1260 nM	1330 nM	> 5000 nM	> 5000 nM	> 5000 nM	1890 nM	318 nM	
COc1cc(N2CCC(N3CCN(C)CC3)CC2)ccc1Nc1ncc(Cl)c(Nc2ccccc2S(=O)(=O)C(C)C)n1 [TAE-684]	> 2000 nM	> 2000 nM	> 2000 nM	> 2000 nM	> 2000 nM	> 2000 nM	> 2000 nM	325 nM	> 2000 nM	1640 nM	> 2000 nM	> 2000 nM	> 2000 nM	> 2000 nM	> 2000 nM	> 2000 nM			
COc1ccc(N(C(=O)Oc2c(C)cccc2C)c2ccnc(Nc3ccc(N4CCN(C)CC4)cc3)n2)c(OC)c1	> 5120 nM	> 5120 nM	> 5120 nM	> 5120 nM	> 5120 nM	> 5120 nM	> 5120 nM	239 nM	> 5120 nM	> 5120 nM	> 5120 nM	> 5120 nM	> 5120 nM	> 5120 nM	> 5120 nM	> 5120 nM			
CC(C)C[C@@H](C=O)NC(=O)[C@H](CC(C)C)NC(=O)[C@H](CC(C)C)NC(=O)OCc1ccccc1 [MG-132] (Cbz-Leu-Leu-Leu-aldehyde)	> 1000 nM	> 1000 nM		> 1000 nM						> 1000 nM							59.6 nM	> 1000 nM	IC50 (DMS-153; dms-153): > 1000 nM; IC50 (IM-9; im-9): > 1000 nM; IC50 (IMR-5; imr-5, read-out: IC50): > 1000 nM; IC50 (LB373-MEL-D; lb373-mel-d): 242 nM and > 1000 nM; IC50 (LU-165; lu-165): > 1000 nM; IC50 (MC-CAR; mc-car): > 1000 nM; IC50 (MFH-ino; mfh-ino): > 1000 nM and 111 nM; IC50 (NCI-H2171; nci-h2171): > 1000 nM; IC50 (NCI-H524; nci-h524): > 1000 nM; IC50 (RPMI-6666; rpmi-6666): > 1000 nM; IC50 (SCLC-21H; sclc-21h): > 1000 nM; IC50 (CAL-148; cal-148): > 1000 nM; IC50 (THP-1; thp-1): > 1000 nM; IC50 (TUR; tur): > 1000 nM; IC50 (WSU-NHL; wsu-nhl): > 1000 nM

Reference: ChEMBL document CHEMBL1201861, “Genomics of Drug Sensitity in Cancer screening data, Wellcome Trust Sanger Institute”
